Measured values: patent US20220289719A1, “HETEROCYCLIC COMPOUNDS AS MNK INHIBITORS” (NANJING INNOCARE PHARMA TECH CO., LTD., priority 2017, published 2022)
Where a name gives a salt, the structure may show the parent alone.

Biological target: T1, Human recombinant full-length MNK1 protein (Homo sapiens, UniProt Q9BUB5)
T1 construct: Human recombinant full-length MNK1 protein; purchased Thermo PR9138A
Assay: MNK1 inhibitory activity assay (ADP-Glo in vitro kinase assay)
Format: biochemical
Conditions: 10 concentration points
Procedure: MNK1 Inhibitory Activity Assay: Evaluation of the effects of compounds of the invention on […] (MNK1) activity using in vitro kinase assays. The experimental methods are summarized as follows: The in vitro activity of MNK1 was determined by measuring the level of ADP produced in the kinase reaction using the ADP-Glo Kinase Assay Kit. The reaction buffer consisted of the following components: 50 mM HEPES, pH 7.5, 10 mM MgCl2, 1 mM EGTA, 0.01% Brij35. Human recombinant full-length MNK1 protein (Thermo, Cat. No. PR9138A) was diluted with a reaction buffer to a 3.13 ng/uL kinase solution. The substrate reaction solution consisted of a substrate diluted to 0.75 mg/ml in reaction buffer ([…], available from […] Domestic Company), 2250 uM ATP, the ADP-Glo reagent and kinase assay solution from Promega kit (Promega, V9102). […] If the compound IC50 value is very low, the initial concentration of the compound can be lowered. To a 384-well assay plate (Thermo, Cat. No. 264706) were added 1 uL of compound solution and 2 uL of MNK1 kinase solution. The mixture was mixed well and incubated for 30 minutes at room temperature; then 2 uL of substrate reaction solution was added, the reaction mixture was incubated for 120 minutes at room temperature. The reaction was terminated after an equal volume of 5uLADP-Glo solution was added, and the remaining ATP was completely consumed. After mixing for 60 minutes at room temperature, 10 ul of the kinase assay solution was added, and the mixture was uniformly mixed, and allowed to stand at room temperature for 40 minutes in the dark. The detection solution converts ADP into new ATP through coupled luciferase/luciferin, and ATP is converted into optical signal by Ultr-GloTM luciferase, which can be detected by Envision. The intensity of the light signal is proportional correlated with the amount of ADP produced in the kinase reaction, therefore, the activity of MNK1 kinase can be determined. In this experiment, the group without protein was used as a negative control (100% inhibition). The group with protein but without compounds was used as a positive control (0% inhibition).

T1 sequence (Q9BUB5 whole entry): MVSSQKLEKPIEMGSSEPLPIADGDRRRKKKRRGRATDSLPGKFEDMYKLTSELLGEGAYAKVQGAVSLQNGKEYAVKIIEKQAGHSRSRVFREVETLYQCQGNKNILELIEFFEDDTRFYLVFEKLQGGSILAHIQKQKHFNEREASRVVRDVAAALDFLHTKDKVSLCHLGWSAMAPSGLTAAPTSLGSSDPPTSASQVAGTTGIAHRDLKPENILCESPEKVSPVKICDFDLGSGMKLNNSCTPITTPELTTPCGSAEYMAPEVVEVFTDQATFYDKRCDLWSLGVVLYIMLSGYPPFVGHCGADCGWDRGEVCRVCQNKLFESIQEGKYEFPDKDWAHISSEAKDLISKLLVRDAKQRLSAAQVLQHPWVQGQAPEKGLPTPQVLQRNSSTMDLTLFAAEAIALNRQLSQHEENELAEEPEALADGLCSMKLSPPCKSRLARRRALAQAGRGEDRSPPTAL

Structure (SMILES) | IC50 [µM]
COc1cc2[nH]ncc2cc1Nc1ncncc1OCCO [Compound 54, 5-(5-(2-Hydroxyethoxy)pyrimidin-4-yl) amino)-6-methoxy-1H-indazole formate] | 0.0343
COc1cc2[nH]ncc2cc1Nc1cc(Nc2cc(C(F)(F)F)ccn2)ncn1 [Compound 25, 5-(6-((4-(Trifluoromethyl)pyridin-2-yl)amino)pyrimidin-4-ylamino)-6-methoxy-1H-indazole] | 0.04
COc1cc2c(cnn2C(=O)C(C)C)cc1Nc1cc(NC(=O)C2CC2)ncn1 [Compound 13, 1-Isobutyryl-5-(6-cyclopropionamidopyrimidin-4-ylamino)-6-methoxyindazole] | 0.225
COc1cc2[nH]ncc2cc1Nc1cc(-n2ccnc2)ncn1 [Compound 65, N-(6-(1H-Imidazol-1-yl)pyrimidin-4-yl)-6-methoxy-1H-indazol-5-amine formate] | 0.694
COc1cc2ncn(C(=O)OC(C)(C)C)c2cc1Nc1cc(NC(=O)C2CC2)ncn1 [Compound 61, 3-tert-butoxycarbonyl-5-(6-cyclopropionamidopyrimidin-4-ylamino)-6-methoxybenzimidazole] | 0.594
COc1cc2[nH]ncc2cc1Nc1cc(NC(=O)c2ccccn2)ncn1 [Compound 11, 5-(6-(2-Pyridine) formylaminopyrimidin-4-ylamino)-6-methoxy-1H-indazole] | 0.532
COc1cc2[nH]ncc2cc1Nc1cc(Nc2cc(Cl)ccn2)ncn1 [Compound 21, 5-(6-((4-Chloropyridin-2-yl)amino)pyrimidin-4-ylamino)-6-methoxy-1H-indazole] | 0.0782
CNc1cc(Nc2cc3cn[nH]c3cc2OC)ncn1 [Compound 30, 5-(6-Methylaminopyrimidin-4-ylamino)-6-methoxy-1H-indazole] | 0.141
COc1cc2c(cnn2C)cc1Nc1cc(NC(=O)C2CC2)ncn1 [Compound 5, 5-(6-Cyclopropionamidopyrimidin-4-ylamino)-6-methoxyl-methylindazole formate] | 0.585
COc1cc2[nH]ncc2cc1Nc1cc(Nc2ncccc2Cl)ncn1 [Compound 28, 5-(6-((3-Chloropyridin-2-yl)amino)pyrimidin-4-ylamino)-6-methoxy-1H-indazole] | 0.539
COc1cc2[nH]ncc2cc1Nc1cc(NC2CC2)ncn1 [Compound 31, 5-(6-Cyclopropylaminopyrimidin-4-ylamino)-6-methoxy-1H-indazole formate] | 0.126
COc1cc2[nH]ncc2cc1Nc1ncnc(NC(=O)C2CC2)c1C [Compound 48, 5-((6-(Cyclopropionamido)-5-methylpyrimidin-4-yl)amino)-6-methoxy-1H-indazole] | 0.187

Compounds with a lower IC50, results first:

IC50 [µM] | Structure (SMILES)
0.0198 | CCOc1cncnc1Nc1cc2cn[nH]c2cc1OC [Compound 56, 5-(5-Ethoxypyrimidin-4-yl) amino)-6-methoxy-1H-indazole formate]
0.0191 | COc1c(Nc2cc(Nc3cc(Cl)ccn3)ncn2)ccc2c1CNC2=O [Compound 87, 5-((6-((4-Chloropyridin-2-yl)amino)pyrimidin-4-yl)amino)-4-methoxyisoindolin-1-one]
0.013 | COc1cc2[nH]ncc2cc1Nc1ncnc(N)c1C(=O)O [Compound 39, 5-((6-Amino-5-carbonylpyrimidin-4-yl)amino)-6-methoxy-1H-indazole formate]
0.0061 | COc1cc2[nH]ncc2cc1Nc1ncnc2[nH]cnc12 [Compound 58, N-(6-Methoxy-1H-indazol-5-yl)-purin-6-amine]
0.0292 | COc1cc2[nH]ncc2cc1Nc1cc(Nc2ccccn2)ncn1 [Compound 20, 5-(6-(Pyridin-2-ylamino)pyrimidin-4-ylamino)-6-methoxy-1H-indazole formate]
0.0105 | CCOC(=O)n1ncc2cc(Nc3cc(NC(=O)C4CC4)ncn3)c(OC)cc21 [Compound 18, 1-Ethoxyacyl-5-(6-cyclopropionamidopyrimidin-4-ylamino)-6-methoxyindazole]
